In patent US8710233B2 (Gruenenthal GmbH, priority 2005, dated 2014):
Like-named read-outs stand apart in the source and are kept apart here.

What was measured:
Type in all cases: cell-based
[1] = target: VR1/TRPV1 receptor (Homo sapiens, UniProt Q8NER1); assay: IC50 (human) after pH stimulus
[2] = target: T1, vanilloid receptor 1 (VR1/TRPV1) of the rat species (Rattus norvegicus, UniProt O35433); assay: FLIPR Ca2+ influx assay on rat dorsal root ganglia cells (pharmacological method I)
T1 construct: The spinal column is removed from decapitated rats; from tissue; host or cells: primary cells dissociated from rat dorsal root ganglia
From the text: I. Functional Investigation of the Vanilloid Receptor 1 (VR1/TRPV1 Receptor)
The agonistic or antagonistic action of the substances to be investigated on the vanilloid receptor 1 (VR1/TRPV1) of the rat species may be determined by the following assay. According to this assay, the influx of Ca^2+ through the receptor channel is quantified with the assistance of a Ca^2+-sensitive dye (type Fluo-4, Molecular Probes Europe BV, Leiden, Netherlands) in a Fluorescent Imaging Plate Reader (FLIPR, Molecular Devices, Sunnyvale, USA).
The spinal column is removed from decapitated rats and is placed directly in cold, i.e. located in an ice bath, HBSS buffer (Hank's buffered saline solution, Gibco Invitrogen GmbH, Karlsruhe, Germany) combined with 1 vol. % (percent by volume) of an AA solution (antibiotic/antimycotic solution, PAA, Pasching, Austria). The spinal column is cut open longitudinally and removed together with fasciae from the spinal canal. The dorsal root ganglia (DRGs) are then removed and in turn stored in cold HBSS buffer combined with 1 vol. % of an AA solution. The DRGs, from which all traces of blood and spinal nerves have been removed, are in each case transferred into 500 μL of cold collagenase type 2 (PAA, Pasching, Austria) and incubated for 35 minutes at 37° C. […] Once incubation is complete, the enzyme solution is carefully removed by pipette and the DRGs, which are left behind, are in each case combined with 500 μL of complete medium.
The DRGs are in each case repeatedly suspended, drawn by means of a syringe through […], no. 12 and no. 16 cannulas and transferred into 50 mL Falcon microtubes and each tube is made up to 15 mL with complete medium. The contents of each Falcon microtube are in each case filtered through a 70 μm Falcon filter insert and centrifuged for 10 minutes at 1200 revolutions and room temperature. The resultant pellet is in each case resuspended in 250 μL of complete medium and the cell count determined.
The number of cells in the suspension is adjusted to 3×10^5 per mL and a 150 μL portion of this suspension is in each case placed in a well of the cell culture plate which has been coated as described above.
The cells are then loaded with 2 μM Fluo-4 and 0.01 vol. % Pluronic F127 (Molecular Probes Europe BV, Leiden, Netherlands) in HBSS buffer (Hank's buffered saline solution, Gibco Invitrogen GmbH, Karlsruhe, Germany) for 30 min at 37° C., washed 3× with HBSS buffer and, after a further 15 minutes' incubation at room temperature, used for Ca^2+ measurement in the FLIPR assay. […] Quantification proceeds by measuring the highest fluorescence intensity (FC, fluorescence counts) over time.
The FLIPR protocol comprises 2 additions of substance. The compounds to be tested (10 μM) are firstly pipetted onto the cells and Ca^2+ influx is compared with the control (capsaicin 10 μM). This provides the percentage activation relative to the Ca^2+ signal after addition of 10 μM of capsaicin (CP). After 5 minutes' incubation, 100 nM of capsaicin are added and the influx of Ca^2+ is again determined.
Desensitising agonists and antagonists result in suppression of Ca^2+ influx. The percentage inhibition in comparison with the maximum achievable inhibition with 10 μM capsaicin is calculated.
Triplicate determinations (n═3) are performed and these are repeated in at least 3 independent experiments […].

[3] = target: T2, vanilloid receptor (VR1) (Homo sapiens, UniProt Q8NER1); assay: FLIPR Ca2+ influx assay on CHO K1 cells transfected with the VR1 gene (pharmacological method II)
T2 construct: expressed in transfected cells; host or cells: CHO K1 cells (ECACC), stably transfected

[4] = Table 2, displacement of capsaicin (100 nM), Cheng-Prusoff, read-out: Ki (rat)
[5] = Table 2, displacement of capsaicin (100 nM), Cheng-Prusoff, read-out: Ki (human)
[6] = table 4, capsaicin, read-out: Ki (rat) Cap.
[7] = table 4, capsaicin, read-out: Ki (human) Cap.
[8] = Ki (rat), Table 2, displacement of capsaicin (100 nM), Cheng-Prusoff

Chain of VR1/TRPV1 receptor (Q8NER1 whole entry): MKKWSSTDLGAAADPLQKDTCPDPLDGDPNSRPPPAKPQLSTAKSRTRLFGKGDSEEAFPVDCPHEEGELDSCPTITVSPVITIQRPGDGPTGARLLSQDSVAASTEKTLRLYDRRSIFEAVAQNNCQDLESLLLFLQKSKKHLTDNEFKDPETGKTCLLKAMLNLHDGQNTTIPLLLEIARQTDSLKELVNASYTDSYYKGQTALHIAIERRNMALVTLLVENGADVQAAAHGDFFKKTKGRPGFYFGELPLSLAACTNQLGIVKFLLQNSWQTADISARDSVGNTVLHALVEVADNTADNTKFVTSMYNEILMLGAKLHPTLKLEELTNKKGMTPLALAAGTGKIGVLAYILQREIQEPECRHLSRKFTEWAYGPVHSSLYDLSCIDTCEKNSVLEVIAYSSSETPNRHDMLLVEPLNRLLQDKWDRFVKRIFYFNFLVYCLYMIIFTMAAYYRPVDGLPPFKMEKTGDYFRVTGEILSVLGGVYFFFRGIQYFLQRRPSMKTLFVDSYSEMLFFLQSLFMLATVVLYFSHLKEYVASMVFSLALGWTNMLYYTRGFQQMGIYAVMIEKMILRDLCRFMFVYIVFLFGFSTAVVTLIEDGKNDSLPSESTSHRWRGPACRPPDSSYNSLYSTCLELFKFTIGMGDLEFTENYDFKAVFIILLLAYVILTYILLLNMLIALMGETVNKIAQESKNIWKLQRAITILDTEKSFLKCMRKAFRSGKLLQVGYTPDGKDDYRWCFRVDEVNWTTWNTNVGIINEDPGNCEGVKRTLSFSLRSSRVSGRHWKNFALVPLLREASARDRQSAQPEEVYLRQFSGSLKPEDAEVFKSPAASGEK
T2 sequence (Q8NER1 whole entry): as above
T1 sequence (O35433 whole entry): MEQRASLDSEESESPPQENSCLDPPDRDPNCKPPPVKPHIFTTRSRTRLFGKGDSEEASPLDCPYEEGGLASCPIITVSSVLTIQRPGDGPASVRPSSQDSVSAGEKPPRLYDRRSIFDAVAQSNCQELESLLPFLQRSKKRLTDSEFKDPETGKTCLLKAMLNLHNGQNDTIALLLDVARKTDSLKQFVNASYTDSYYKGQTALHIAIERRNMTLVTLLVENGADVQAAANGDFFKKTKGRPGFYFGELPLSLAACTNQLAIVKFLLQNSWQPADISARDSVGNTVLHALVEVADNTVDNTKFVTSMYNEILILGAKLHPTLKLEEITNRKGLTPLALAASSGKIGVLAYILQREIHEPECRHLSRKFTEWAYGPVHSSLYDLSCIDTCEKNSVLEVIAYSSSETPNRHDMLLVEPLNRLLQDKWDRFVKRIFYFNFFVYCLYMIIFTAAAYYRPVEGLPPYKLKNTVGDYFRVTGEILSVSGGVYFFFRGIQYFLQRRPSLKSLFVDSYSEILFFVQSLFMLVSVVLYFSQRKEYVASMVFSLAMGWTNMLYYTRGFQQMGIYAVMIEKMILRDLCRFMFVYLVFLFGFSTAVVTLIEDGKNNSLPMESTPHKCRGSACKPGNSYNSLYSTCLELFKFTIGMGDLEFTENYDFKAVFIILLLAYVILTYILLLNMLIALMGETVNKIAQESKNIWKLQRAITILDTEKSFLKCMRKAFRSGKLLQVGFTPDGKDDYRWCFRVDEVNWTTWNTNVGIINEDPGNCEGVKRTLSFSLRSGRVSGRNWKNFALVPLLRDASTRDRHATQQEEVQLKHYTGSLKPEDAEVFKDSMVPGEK

Row | Compound | IC50 ([1]; Table 2) [nM] | Ki [2, 4] [nM] | Ki [3, 5] [nM] | further results
1 | CC(C(=O)NCc1ccc(C(F)(F)F)nc1Br)c1ccc(NS(C)(=O)=O)c(F)c1 (stereo not shown) [Example 6, N-((2-bromo-6-(trifluoromethyl)pyridin-3-yl)methyl)-2-(3-fluoro-4-(methylsulfonamido)phenyl)propanamide] | 2610 | 95 | 169 | –
2 | CCN(CC)c1nc(C(F)(F)F)ccc1CNC(=O)C(C)c1ccc(NS(C)(=O)=O)c(F)c1 (stereo not shown) [Example 15, N-((2-(diethylamino)-6-(trifluoromethyl)pyridin-3-yl)methyl)-2-(3-fluoro-4-(methylsulfonamido)phenyl)propanamide] | – | – | – | IC50 ([1]; table 4): 148 nM; Ki [2, 6]: 12 nM; Ki [3, 7]: 3.5 nM
3 | COc1nc(C(F)(F)F)ccc1CNC(=O)C(C)c1ccc(NS(C)(=O)=O)c(F)c1 (stereo not shown) [Example 18, 2-(3-fluoro-4-(methylsulfonamido)phenyl)-N-((2-methoxy-6-(trifluoromethyl)pyridin-3-yl)methyl)propanamide] | 2710 | – | 68.9 | Ki [2, 8]: 47 nM
4 | CC(C(=O)NCc1ccc(C(F)(F)F)nc1-c1ccccc1)c1ccc(NS(C)(=O)=O)c(F)c1 (stereo not shown) [Example 22, 2-(3-fluoro-4-(methylsulfonamido)phenyl)-N-((2-phenyl-6-(trifluoromethyl)pyridin-3-yl)methyl)propanamide] | 62 | 4.9 | 6.4 | –
5 | CC(C(=O)NCc1ccc(C(F)(F)F)cc1N1CCOCC1)c1ccc(NS(C)(=O)=O)c(F)c1 (stereo not shown) [Example 33, 2-(3-fluoro-4-(methylsulfonamido)phenyl)-N-(2-morpholino-4-(trifluoromethyl)benzyl)propanamide] | 1380 | 4.8 | 7.2 | –
6 | CCCN(CCC)c1cc(C(F)(F)F)ccc1CNC(=O)C(C)c1ccc(NS(C)(=O)=O)c(F)c1 (stereo not shown) [Example 37, N-(2-(dipropylamino)-4-(trifluoromethyl)benzyl)-2-(3-fluoro-4-(methylsulfonamido)phenyl)propanamide] | – | – | – | IC50 ([1]; table 4): 26.2 nM; Ki [2, 6]: 1.8 nM; Ki [3, 7]: 0.3 nM
7 | CCCCOc1cc(C(F)(F)F)ccc1CNC(=O)C(C)c1ccc(NS(C)(=O)=O)c(F)c1 (stereo not shown) [Example 40, N-(2-butoxy-4-(trifluoromethyl)benzyl)-2-(3-fluoro-4-(methylsulfonamido)-phenyl)propanamide] | – | – | – | IC50 ([1]; table 4): 48 nM; Ki [2, 6]: 0.4 nM; Ki [3, 7]: 1 nM
8 | CC(C(=O)NCc1ccc(C(F)(F)F)cc1OC1CCCC1)c1ccc(NS(C)(=O)=O)c(F)c1 (stereo not shown) [Example 42, N-(2-(cyclopentyloxy)-4-(trifluoromethyl)benzyl)-2-(3-fluoro-4-(methylsulfonamido)phenyl)propanamide] | – | – | – | IC50 ([1]; table 4): 26 nM; Ki [2, 6]: 0.5 nM; Ki [3, 7]: 0.6 nM
9 | CC(C(=O)NCc1ccc(C(C)(C)C)cc1N1CCCCC1)c1ccc(NS(C)(=O)=O)c(F)c1 (stereo not shown) [Example 63, N-(4-tert-butyl-2-(piperidin-1-yl)benzyl)-2-(3-fluoro-4-(methylsulfonamido)-phenyl)propanamide] | – | – | – | inhibition at 1 µM ([1]; @ 1 μM, ne = no effect, read-out: inhibition in percent, IC50 (human) after pH stimulus): 70%; Ki [2, 6]: 23.9 nM; Ki [3, 7]: 28.6 nM
10 | CC(C(=O)NCc1ccc(C(F)(F)F)nc1N1CCCCC1)c1ccc(NS(C)(=O)=O)c(Cl)c1 (stereo not shown) [Example 64, 2-(3-chloro-4-(methylsulfonamido)phenyl)-N-((2-(piperidin-1-yl)-6-(trifluoromethyl)pyridin-3-yl)methyl)propanamide] | – | 6.3 | 2.3 | –
11 | CC(C(=O)NCc1ccc(C(F)(F)F)nc1N1CCCC1)c1ccc(NS(C)(=O)=O)c(Cl)c1 (stereo not shown) [Example 65, 2-(3-chloro-4-(methylsulfonamido)phenyl)-N-((2-(pyrrolidin-1-yl)-6-(trifluoromethyl)pyridin-3-yl)methyl)propanamide] | – | 36.5 | 4.2 | –
12 | CC(C(=O)NCc1ccc(C(F)(F)F)cc1N1CCCCC1)c1ccc(NS(C)(=O)=O)c(Cl)c1 (stereo not shown) [Example 66, 2-(3-chloro-4-(methylsulfonamido)phenyl)-N-(2-(piperidin-1-yl)-4-(trifluoromethyl)benzyl)propanamide] | – | 3.7 | 2.9 | –
13 | CC(C(=O)NCc1ccc(C(F)(F)F)nc1N1CCCCC1)c1ccc(NS(C)(=O)=O)c(Br)c1 (stereo not shown) [Example 67, 2-(3-bromo-4-(methylsulfonamido)phenyl)-N-((2-(piperidin-1-yl)-6-(trifluoromethyl)pyridin-3-yl)methyl)propanamide] | – | 5.1 | 3.2 | –
14 | CC(C(=O)NCc1ccc(C(C)(C)C)cc1C#N)c1ccc(NS(C)(=O)=O)c(F)c1 (stereo not shown) [Example 70, N-(4-tert-butyl-2-cyanobenzyl)-2-(3-fluoro-4-(methylsulfonamido)-phenyl)propanamide] | 1490 | 9 | 15.5 | –

The next lines start with results.

Row | IC50 ([1]; Table 2) [nM] | Ki [2, 4] [nM] | Ki [3, 5] [nM] | Compound | further results
15 | 46.7 | 1.1 | 0.3 | C[C@@H](C(=O)NCc1ccc(C(F)(F)F)nc1N1CCCCC1)c1ccc(NS(C)(=O)=O)c(F)c1 [Example 11, (R)-2-(3-fluoro-4-(methylsulfonamido)phenyl)-N-((2-(piperidin-1-yl)-6-(trifluoromethyl)pyridin-3-yl)methyl)propanamide] | –
16 | 169 | 4.3 | 1.3 | CC(C(=O)NCc1ccc(C(F)(F)F)nc1N1CCOCC1)c1ccc(NS(C)(=O)=O)c(F)c1 (stereo not shown) [Example 12, 2-(3-fluoro-4-(methylsulfonamido)phenyl)-N-((2-morpholino-6-(trifluoromethyl)pyridin-3-yl)methyl)propanamide] | –
17 | 211 | 3.8 | 0.6 | CC(C(=O)NCc1ccc(C(F)(F)F)nc1N1CCCC1)c1ccc(NS(C)(=O)=O)c(F)c1 (stereo not shown) [Example 13, 2-(3-fluoro-4-(methylsulfonamido)phenyl)-N-((2-(pyrrolidin-1-yl)-6-(trifluoromethyl)pyridin-3-yl)methyl)propanamide] | –
18 | 93 | – | 2.1 | CC(C)Oc1nc(C(F)(F)F)ccc1CNC(=O)C(C)c1ccc(NS(C)(=O)=O)c(F)c1 (stereo not shown) [Example 20, 2-(3-fluoro-4-(methylsulfonamido)phenyl)-N-((2-isopropoxy-6-(trifluoromethyl)pyridin-3-yl)methyl)propanamide] | Ki [2, 8]: 5.4 nM
19 | 29 | 1.3 | 0.9 | CC(C(=O)NCc1ccc(C(F)(F)F)nc1OC1CCCC1)c1ccc(NS(C)(=O)=O)c(F)c1 (stereo not shown) [Example 21, N-((2-cyclopentyloxy-6-(trifluoromethyl)pyridin-3-yl)methyl)-2-(3-fluoro-4-(methylsulfonamido)phenyl)propanamide] | –
20 | 50 | 0.5 | 0.6 | C[C@H](C(=O)NCc1ccc(C(F)(F)F)cc1N1CCCCC1)c1ccc(NS(C)(=O)=O)c(F)c1 [Example 31, (S)-2-(3-fluoro-4-(methylsulfonamido)phenyl)-N-(2-(piperidin-1-yl)-4-(trifluoromethyl)benzyl)propanamide] | –
21 | – | 2.4 | 1.7 | CC(C(=O)NCc1ccc(C(F)(F)F)cc1N1CCCC1)c1ccc(NS(C)(=O)=O)c(Br)c1 (stereo not shown) [Example 69, 2-(3-bromo-4-(methylsulfonamido)phenyl)-N-(2-(pyrrolidin-1-yl)-4-(trifluoromethyl)benzyl)propanamide] | –
